From ChEMBL document CHEMBL4229552, “Optimization of 5-arylidene barbiturates as potent, selective, reversible LSD1 inhibitors for the treatment of acute promyelocytic leukemia” (Bioorg Med Chem, 2018)
Active and inactive are the calls of the source. No cut-off for these calls is given here.

Key:
[1] = biological target: T1, Lysine-specific histone demethylase 1A (Homo sapiens, UniProt O60341)
[2] = tested on: NB-4; experiment: Induction of differentiation of human NB4 cells assessed as increase in CD11b positive cells at 0.5 to 5 uM by flow cytometric analysis; type: functional, cell-based
[3] = biological target: T1, Lysine-specific histone demethylase 1A; remark: listed apart in the source
[4] = tested on: NB-4; experiment: Induction of differentiation of human NB4 cells assessed as increase in CD11b positive cells at 2.5 uM by flow cytometric analysis relative to control; type: functional
[5] = tested on: NB-4; experiment: Induction of differentiation of human NB4 cells assessed as increase in CD11b positive cells at 5 uM by flow cytometric analysis relative to control; type: functional
[6] = tested on: NB-4; experiment: Induction of differentiation of human NB4 cells assessed as increase in CD11b positive cells at 1.25 uM by flow cytometric analysis relative to control; type: functional, cell-based
[7] = species on record: Homo sapiens
[8] = biological target: T1, Lysine-specific histone demethylase 1A; experiment: Binding affinity to fluorescently labeled recombinant human LSD1 expressed in Escherichia coli by MST analysis
[9] = biological target: T2, Amine oxidase [flavin-containing] A (Homo sapiens, UniProt P21397); experiment: Inhibition of recombinant full length N-terminal FLAG-tagged human MAO-A expressed in baculovirus infected Sf9 insect cells using […] as substrate after 1 hr by spectrometric method
T2 sequence (P21397 whole entry): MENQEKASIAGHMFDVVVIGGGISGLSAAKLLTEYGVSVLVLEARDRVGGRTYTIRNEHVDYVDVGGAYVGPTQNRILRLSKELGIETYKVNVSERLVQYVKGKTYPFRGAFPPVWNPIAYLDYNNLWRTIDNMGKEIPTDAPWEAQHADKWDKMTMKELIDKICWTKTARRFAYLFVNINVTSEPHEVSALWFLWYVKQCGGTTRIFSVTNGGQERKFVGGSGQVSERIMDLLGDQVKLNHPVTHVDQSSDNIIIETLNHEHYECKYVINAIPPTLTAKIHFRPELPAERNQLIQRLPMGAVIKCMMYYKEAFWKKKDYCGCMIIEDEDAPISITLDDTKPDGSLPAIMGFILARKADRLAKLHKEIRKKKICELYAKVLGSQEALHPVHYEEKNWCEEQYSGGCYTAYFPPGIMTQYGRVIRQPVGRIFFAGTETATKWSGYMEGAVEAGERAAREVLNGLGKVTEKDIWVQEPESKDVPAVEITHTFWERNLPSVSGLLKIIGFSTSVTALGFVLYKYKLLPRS

[10] = species on record: Homo sapiens; remark: listed apart in the source
[11] = biological target: T3, Amine oxidase [flavin-containing] B (Homo sapiens, UniProt P27338); experiment: Inhibition of recombinant full length N-terminal FLAG-tagged human MAO-B expressed in baculovirus infected Sf9 insect cells using […] as substrate after 1 hr by spectrometric method
T3 sequence (P27338 whole entry): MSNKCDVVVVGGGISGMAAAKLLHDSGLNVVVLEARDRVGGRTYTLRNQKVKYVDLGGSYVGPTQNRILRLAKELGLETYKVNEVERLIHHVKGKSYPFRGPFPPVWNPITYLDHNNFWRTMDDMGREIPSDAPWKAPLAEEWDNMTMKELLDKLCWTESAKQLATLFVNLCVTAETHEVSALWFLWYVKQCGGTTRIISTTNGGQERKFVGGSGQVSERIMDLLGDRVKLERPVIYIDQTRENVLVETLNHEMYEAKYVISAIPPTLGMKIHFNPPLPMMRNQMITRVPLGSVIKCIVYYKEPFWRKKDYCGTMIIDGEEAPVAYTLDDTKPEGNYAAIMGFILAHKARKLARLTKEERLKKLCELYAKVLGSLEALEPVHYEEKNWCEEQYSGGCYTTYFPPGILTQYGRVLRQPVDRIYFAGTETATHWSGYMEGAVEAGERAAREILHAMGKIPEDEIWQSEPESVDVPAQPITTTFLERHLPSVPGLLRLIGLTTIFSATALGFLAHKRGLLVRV

[12] = biological target: T1, Lysine-specific histone demethylase 1A; experiment: Inhibition of LSD1 in HEK293 cells assessed as increase in H3K4me2 levels at 2.5 uM after 24 hrs by Western blot method; type: cell-based
[13] = biological target: T1, Lysine-specific histone demethylase 1A; experiment: Inhibition of LSD1 in HEK293 cells assessed as increase in H3K4me1 levels at 10 uM after 24 hrs by Western blot method; type: cell-based
[14] = biological target: T1, Lysine-specific histone demethylase 1A; conditions: 4.1 uM
[15] = tested on: NB-4; experiment: Induction of differentiation of human NB4 cells assessed as increase in CD11b positive cells at 10 uM by flow cytometric analysis relative to control; type: functional

Structure (SMILES): COc1ccc(CC2C(=O)NC(=O)N(c3ccc(Br)cc3)C2=O)cc1OC (configuration not stated)
- IC50 [1]: > 75 µM

Structure (SMILES): Cc1ccc(N2C(=O)NC(=O)C(=Cc3cc4ccccc4[nH]3)C2=O)cc1
- IC50 [1]: 1.1 µM
- Activity [2]: Active

Structure (SMILES): Cc1ccc(N2C(=O)NC(=O)C(=Cc3cccc(O)c3)C2=O)cc1
- IC50 [1]: 23 µM

Structure (SMILES): O=C1NC(=O)N(c2ccc(Br)cc2)C(=O)C1=Cc1ccc(O)c(O)c1
- IC50 [1]: 0.3 µM
- Activity [2]: Active
- Ratio IC50 [3]: 12

Structure (SMILES): COc1ccc(C=C2C(=O)NC(=O)N(c3ccc(Br)cc3)C2=O)c(OC)c1OC
- IC50 [1]: 3.6 µM

Structure (SMILES): COc1ccc(C=C2C(=O)NC(=O)N(c3ccc(Br)cc3)C2=O)cc1OC
- IC50 [1]: 2.8 µM

Structure (SMILES): N#Cc1ccc(N2C(=O)NC(=O)C(=Cc3ccc(O)c(O)c3)C2=O)cc1
- IC50 [1]: 1.2 µM
- Activity [2]: Active

Structure (SMILES): COc1cc(C=C2C(=O)NC(=O)N(c3ccc(Br)cc3)C2=O)cc(OC)c1O
- Activity [4]: Active
- Activity [5]: Active
- IC50 [1]: 0.55 µM
- Activity [6]: Active

Structure (SMILES): Cc1ccccc1N1C(=O)NC(=O)C(=Cc2cc3ccccc3[nH]2)C1=O
- IC50 [1]: 4.4 µM

Structure (SMILES): COc1cc(C=C2C(=O)NC(=O)N(c3ccc(Br)cc3)C2=O)ccc1O
- Activity [4]: Active
- Activity [5]: Active
- IC50 [1]: 0.87 µM
- Activity [6]: Active

Structure (SMILES): CCc1ccc(N2C(=O)NC(=O)/C(=C\c3cc4ccccc4[nH]3)C2=O)cc1
- IC50 [1]: 6.42 µM

Structure (SMILES): COc1ccc(N2C(=O)NC(=O)/C(=C\c3ccc(N4CCOCC4)c(F)c3)C2=O)cc1
- IC50 [1]: 18.2 µM

Structure (SMILES): CN1CCN(C(=O)CN[C@H]2C[C@@H]2c2ccc(OCc3ccccc3)cc2)CC1
- Activity [2]: Active

Structure (SMILES): O=C1NC(=S)N(c2ccc(Br)cc2)C(=O)C1=Cc1ccc(O)c(O)c1
- Activity [4]: 12.5%
- Ratio IC50 [7]: > 487
- Activity [5]: 36.6%
- Kd [8]: 1.1 µM
- IC50 [9]: 72.5 µM
- Ratio IC50 [10]: 177
- IC50 [1]: 0.41 µM
- IC50 [11]: > 200 µM
- inhibition [12]: Active
- inhibition [13]: Active
- Activity [14]: 98.2%
- Activity [15]: 89.7%

Structure (SMILES): COc1ccc(N2C(=O)NC(=O)C(=Cc3ccc(O)c(O)c3)C2=O)cc1
- IC50 [1]: 3.1 µM

Structure (SMILES): COc1ccc(C=C2C(=O)NC(=O)N(c3ccc(Br)cc3)C2=O)cc1O
- IC50 [1]: 3.6 µM
